pIC50: −log10 of the molar value.
Key:
human α4β7 = biological target: T1, human α4β7 (Homo sapiens, UniProt P13612+P26010); assay: α4β7-K562 Cell Adhesion Assay (α4β7 Mediated Adhesion/VCAM-1); format: cell-based; conditions: K562 cells expressing human α4β7 on recombinant hVCAM-1; read-out: α4β7 IC50
T1 construct: expressed in transfected cells
T1 sequence (P13612 34-1032): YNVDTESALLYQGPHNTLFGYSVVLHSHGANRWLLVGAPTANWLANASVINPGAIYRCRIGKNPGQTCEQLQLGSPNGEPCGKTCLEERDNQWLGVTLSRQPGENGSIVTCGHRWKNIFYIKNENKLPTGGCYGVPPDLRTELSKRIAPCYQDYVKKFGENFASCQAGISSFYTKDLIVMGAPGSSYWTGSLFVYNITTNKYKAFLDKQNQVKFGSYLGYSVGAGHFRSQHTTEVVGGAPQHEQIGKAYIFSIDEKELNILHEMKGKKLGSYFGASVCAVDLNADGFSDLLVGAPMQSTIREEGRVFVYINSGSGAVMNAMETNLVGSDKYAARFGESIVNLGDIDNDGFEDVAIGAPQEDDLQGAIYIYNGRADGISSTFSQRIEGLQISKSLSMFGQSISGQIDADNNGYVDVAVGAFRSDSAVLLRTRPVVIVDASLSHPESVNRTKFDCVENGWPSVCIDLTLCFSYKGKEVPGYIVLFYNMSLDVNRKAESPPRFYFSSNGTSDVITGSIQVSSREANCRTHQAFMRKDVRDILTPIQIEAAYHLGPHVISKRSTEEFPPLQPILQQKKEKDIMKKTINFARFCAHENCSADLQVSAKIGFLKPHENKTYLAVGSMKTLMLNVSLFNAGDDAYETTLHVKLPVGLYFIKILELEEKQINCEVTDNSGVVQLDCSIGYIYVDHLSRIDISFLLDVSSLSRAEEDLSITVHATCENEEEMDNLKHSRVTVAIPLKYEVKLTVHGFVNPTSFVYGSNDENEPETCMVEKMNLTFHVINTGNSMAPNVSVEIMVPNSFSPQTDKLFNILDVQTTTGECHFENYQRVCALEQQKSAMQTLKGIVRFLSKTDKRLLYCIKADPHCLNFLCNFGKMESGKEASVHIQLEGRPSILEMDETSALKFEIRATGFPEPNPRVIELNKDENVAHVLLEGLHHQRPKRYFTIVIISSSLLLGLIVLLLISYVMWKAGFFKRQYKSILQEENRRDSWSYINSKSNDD
T1 sequence (P26010 20-798): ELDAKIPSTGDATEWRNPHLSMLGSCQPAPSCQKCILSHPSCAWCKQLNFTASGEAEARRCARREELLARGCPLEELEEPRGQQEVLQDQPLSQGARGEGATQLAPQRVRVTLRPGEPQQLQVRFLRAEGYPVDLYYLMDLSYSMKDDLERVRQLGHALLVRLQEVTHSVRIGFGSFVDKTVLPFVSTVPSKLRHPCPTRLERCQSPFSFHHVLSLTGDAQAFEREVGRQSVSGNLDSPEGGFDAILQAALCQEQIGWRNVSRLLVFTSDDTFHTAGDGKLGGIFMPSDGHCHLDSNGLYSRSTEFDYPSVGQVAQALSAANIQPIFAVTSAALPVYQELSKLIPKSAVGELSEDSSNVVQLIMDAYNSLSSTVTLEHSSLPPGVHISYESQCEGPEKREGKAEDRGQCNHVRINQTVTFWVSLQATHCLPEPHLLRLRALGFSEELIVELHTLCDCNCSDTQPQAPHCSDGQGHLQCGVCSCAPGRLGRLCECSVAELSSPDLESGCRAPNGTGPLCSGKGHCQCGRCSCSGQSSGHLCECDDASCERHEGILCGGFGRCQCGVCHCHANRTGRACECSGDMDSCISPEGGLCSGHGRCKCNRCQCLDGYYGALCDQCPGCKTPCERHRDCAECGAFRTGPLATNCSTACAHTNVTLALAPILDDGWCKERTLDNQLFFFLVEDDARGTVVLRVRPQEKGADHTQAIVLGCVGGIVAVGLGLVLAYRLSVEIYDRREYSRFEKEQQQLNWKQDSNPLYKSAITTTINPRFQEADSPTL
Procedure: (§1) α4β7-K562 Cell Adhesion Assay (α4β7 Mediated Adhesion/VCAM-1) Immulon 96 well plates (Dynex) were coated with 100 μL recombinant hVCAM-1 at 4.0 μg/mL in 0.05 M NaCO3 buffer pH 9.0 overnight at 4° C. (R&D System). Plates were washed 3 times in PBS with 1% BSA and blocked for 1 h @ room temperature in this buffer. PBS was removed and compounds to be tested (50 μL) were added at 2× concentration. A stable cell line of K562 cells expressing human α4β7, (50 μL at 2×10^6/mL) labeled with 5 μM Calcein AM (Molecular Probes) for 1 h at 37° C., were added to each well and allowed to adhere for 1 h at room temperature. Plates were washed 3× in PBS+1% BSA and cells were lysed for 15 minutes in 100 μL of 1 M Tris pH 8.0 with 1% SDS. The plate was read at 485 nm excitation and 530 nm emission.

α4β1 = α4β1 (Homo sapiens, UniProt P05556+P13612); assay: Ramos Cell Adhesion Assay (α4β1 Mediated Adhesion/VCAM-1); format: cell-based; set-up: Ramos cells, (50 μL at 2×10^6/mL) labeled with 5 μM Calcein AM; endogenous in cells; host or cells: Ramos cells; conditions: Ramos cells on recombinant hVCAM-1; read-out: α4β1 IC50
α4β1, sequence (P05556 21-798, one chain of several): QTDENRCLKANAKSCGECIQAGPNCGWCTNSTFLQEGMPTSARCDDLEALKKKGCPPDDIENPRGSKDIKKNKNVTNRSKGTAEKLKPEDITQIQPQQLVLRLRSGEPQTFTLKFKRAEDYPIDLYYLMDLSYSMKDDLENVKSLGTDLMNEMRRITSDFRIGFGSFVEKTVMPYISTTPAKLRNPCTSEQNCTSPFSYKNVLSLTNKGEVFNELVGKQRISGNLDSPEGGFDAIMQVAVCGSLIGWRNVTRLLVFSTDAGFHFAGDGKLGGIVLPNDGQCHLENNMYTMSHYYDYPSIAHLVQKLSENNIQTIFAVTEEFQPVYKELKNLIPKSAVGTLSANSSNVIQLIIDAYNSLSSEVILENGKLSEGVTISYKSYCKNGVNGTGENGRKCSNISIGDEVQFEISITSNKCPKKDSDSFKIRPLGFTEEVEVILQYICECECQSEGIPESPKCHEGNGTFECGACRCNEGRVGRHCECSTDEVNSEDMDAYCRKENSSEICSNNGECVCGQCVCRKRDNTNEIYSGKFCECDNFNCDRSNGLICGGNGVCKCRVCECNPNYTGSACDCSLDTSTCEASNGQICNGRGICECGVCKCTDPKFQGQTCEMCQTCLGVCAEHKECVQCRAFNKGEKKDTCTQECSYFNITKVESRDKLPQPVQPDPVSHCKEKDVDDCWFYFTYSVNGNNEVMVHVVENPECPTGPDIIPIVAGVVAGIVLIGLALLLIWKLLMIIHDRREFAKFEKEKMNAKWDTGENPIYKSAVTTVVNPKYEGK
Procedure: as §1, with “Ramos” for “α4β7-K562”, “α4β1” for “(α4β7”, “[…]” for “96”, “Systems).” for “System).”, “Ramos cells,” for “A stable cell line of K562 cells expressing human α4β7,”

Row | Compound | pIC50 (human α4β7) | pIC50 (α4β1)
1 | O=C(Nc1ccc(CC(NC(=O)C2C3CCC(CC3)N2C(=O)c2ccccc2F)C(=O)O)cc1)c1c(Cl)cncc1Cl (mixture of isomers) [Cpd 9] | 6.82 | 6.36
2 | CCCCCC12CCC(C(=O)N3C4CCC(CC4)C3C(=O)NC(Cc3ccc(NC(=O)c4c(Cl)cncc4Cl)cc3)C(=O)O)(CC1)CC2 (mixture of isomers) [Cpd 13] | < 5.30 | < 5.30
3 | COc1cccc(CC(=O)N2C3CCC(CC3)C2C(=O)NC(Cc2ccc(NC(=O)c3c(Cl)cncc3Cl)cc2)C(=O)O)c1 (centres unmarked) [Cpd 1] | 7.03 | 6.81
4 | O=C(Nc1ccc(CC(NC(=O)C2C3CCC(CC3)N2C(=O)Cc2ccccc2C(F)(F)F)C(=O)O)cc1)c1c(Cl)cncc1Cl (centres unmarked) [Cpd 2] | 6.50 | 6.79
5 | O=C(Nc1ccc(CC(NC(=O)C2C3CCC(CC3)N2C(=O)Cc2ccccn2)C(=O)O)cc1)c1c(Cl)cncc1Cl (centres unmarked) [Cpd 4] | 7.49 | 7.60
6 | O=C(Nc1ccc(CC(NC(=O)C2C3CCC(CC3)N2C(=O)Cc2cccnc2)C(=O)O)cc1)c1c(Cl)cncc1Cl (centres unmarked) [Cpd 5] | 7.21 | 7.70
7 | O=C(Nc1ccc(CC(NC(=O)C2C3CCC(CC3)N2C(=O)Cc2c(Cl)cccc2Cl)C(=O)O)cc1)c1c(Cl)cncc1Cl (centres unmarked) [Cpd 6] | 6.41 | 6.63
8 | O=C(Nc1ccc(CC(NC(=O)C2C3CCC(CC3)N2C(=O)Cc2ccc3ccccc3c2)C(=O)O)cc1)c1c(Cl)cncc1Cl (centres unmarked) [Cpd 7] | 7.36 | 7.20
9 | COc1ccc(OC)c(C(=O)N2C3CCC(CC3)C2C(=O)NC(Cc2ccc(NC(=O)c3c(Cl)cncc3Cl)cc2)C(=O)O)c1 (centres unmarked) [Cpd 8] | 5.99 | 6.73
10 | O=C(Nc1ccc(CC(NC(=O)C2C3CCC(CC3)N2C(=O)c2cc(Cl)cc(Cl)c2)C(=O)O)cc1)c1c(Cl)cncc1Cl (centres unmarked) [Cpd 10] | 6.73 | 6.07
11 | O=C(Nc1ccc(CC(NC(=O)C2C3CCC(CC3)N2C(=O)c2ccccc2C(F)(F)F)C(=O)O)cc1)c1c(Cl)cncc1Cl (centres unmarked) [Cpd 12] | 6.13 | 6.34
12 | O=C(Nc1ccc(CC(NC(=O)C2C3CCC(CC3)N2C(=O)c2c(Cl)cccc2Cl)C(=O)O)cc1)c1c(Cl)cncc1Cl (centres unmarked) [Cpd 14] | < 5.30 | < 5.30
13 | Cc1ccnn1CC(=O)N1C2CCC(CC2)C1C(=O)NC(Cc1ccc(NC(=O)c2c(Cl)cncc2Cl)cc1)C(=O)O (centres unmarked) [Cpd 15] | 7.41 | 7.16
14 | O=C(Nc1ccc(CC(NC(=O)C2C3CCC(CC3)N2Cc2ccccc2)C(=O)O)cc1)c1c(Cl)cncc1Cl (centres unmarked) [Cpd 18] | 6.51 | 6.27
15 | O=C(Nc1ccc(CC(NC(=O)C2C3CCC(CC3)N2Cc2ccc(Cl)s2)C(=O)O)cc1)c1c(Cl)cncc1Cl (centres unmarked) [Cpd 19] | < 5.30 | 5.59
16 | O=C(Nc1ccc(CC(NC(=O)C2C3CCC(CC3)N2C(=O)Nc2ccccc2)C(=O)O)cc1)c1c(Cl)cncc1Cl (centres unmarked) [Cpd 20] | 6.54 | 6.59
17 | Cc1ccc(NC(=O)N2C3CCC(CC3)[C@H]2C(=O)N[C@@H](Cc2ccc(NC(=O)c3c(Cl)cncc3Cl)cc2)C(=O)O)cc1 [Cpd 21, 3-{4-[(3,5-dichloro-pyridine-4-carbonyl)-amino]-phenyl}-2-[(2-p-tolylcarbamoyl-2-aza-bicyclo[2.2.2]octane-3-carbonyl)-amino]-propionic acid] | 6.91 | 6.23
18 | O=C(Nc1ccc(CC(NC(=O)C2C3CCC(CC3)N2C(=O)Nc2ccccc2Cl)C(=O)O)cc1)c1c(Cl)cncc1Cl (centres unmarked) [Cpd 22] | 6.17 | 6.42

Further lines, results first:

Row | pIC50 (human α4β7) | pIC50 (α4β1) | Compound
19 | 6.63 | 6.81 | O=C(Nc1ccc(CC(NC(=O)C2C3CCC(CC3)N2C(=O)Cc2ccsc2)C(=O)O)cc1)c1c(Cl)cncc1Cl (mixture of isomers) [Cpd 60]
20 | 7.33 | 7.85 | CC(C)(C)CC(=O)N1C2CCC(CC2)C1C(=O)NC(Cc1ccc(NC(=O)c2c(Cl)cncc2Cl)cc1)C(=O)O (single isomer, unassigned) [Cpd 34]
21 | 6.35 | 6.61 | O=C(Nc1ccc(CC(NC(=O)C2C3CCC(CC3)N2C(=O)Nc2cccc(Cl)c2)C(=O)O)cc1)c1c(Cl)cncc1Cl (centres unmarked) [Cpd 23]
22 | 6.13 | 6.23 | O=C(Nc1ccc(CC(NC(=O)C2C3CCC(CC3)N2C(=O)Nc2ccc(Cl)cc2)C(=O)O)cc1)c1c(Cl)cncc1Cl (centres unmarked) [Cpd 24]
23 | 6.42 | 7.14 | O=C(Nc1ccc(CC(NC(=O)C2C3CCC(CC3)N2C(=O)NCc2ccccc2)C(=O)O)cc1)c1c(Cl)cncc1Cl (centres unmarked) [Cpd 25]
24 | 6.08 | 6.41 | CC(C)(C)CC(=O)N1C2CCC(CC2)C1C(=O)NC(Cc1ccc(NC(=O)c2c(Cl)cncc2Cl)cc1)C(=O)O (centres unmarked) [Cpd 27]
25 | 6.82 | 7.05 | O=C(Nc1ccc(CC(NC(=O)C2C3CCC(CC3)N2C(=O)CCC2CCCC2)C(=O)O)cc1)c1c(Cl)cncc1Cl (centres unmarked) [Cpd 28]
26 | 7.57 | 7.55 | COc1ccccc1CC(=O)N1C2CCC(CC2)C1C(=O)NC(Cc1ccc(NC(=O)c2c(Cl)cncc2Cl)cc1)C(=O)O (centres unmarked) [Cpd 29]
27 | 7.15 | 6.94 | COc1ccc(CC(=O)N2C3CCC(CC3)C2C(=O)NC(Cc2ccc(NC(=O)c3c(Cl)cncc3Cl)cc2)C(=O)O)cc1 (centres unmarked) [Cpd 30]
28 | 6.97 | 8.10 | COc1cc(CC(=O)N2C3CCC(CC3)C2C(=O)NC(Cc2ccc(NC(=O)c3c(Cl)cncc3Cl)cc2)C(=O)O)cc(OC)c1 (centres unmarked) [Cpd 31]
29 | 7.52 | 7.92 | O=C(Nc1ccc(CC(NC(=O)C2C3CCC(CC3)N2C(=O)Cc2cccs2)C(=O)O)cc1)c1c(Cl)cncc1Cl (centres unmarked) [Cpd 32]
30 | < 5.30 | 6.91 | CC(C)(C)OC(=O)N1CCN(CCC(=O)N2C3CCC(CC3)C2C(=O)NC(Cc2ccc(NC(=O)c3c(Cl)cncc3Cl)cc2)C(=O)O)CC1 (centres unmarked) [Cpd 35]
31 | 7.18 | 7.26 | O=C(Nc1ccc(CC(NC(=O)C2C3CCC(CC3)N2C(=O)Cc2csc3ccccc23)C(=O)O)cc1)c1c(Cl)cncc1Cl (centres unmarked) [Cpd 36]

— patent US20060223846A1, “Aza-bridged-bicyclic amino acid derivatives as alpha4 integrin antagonists” (priority 2005, published 2006)
